Where two headings read alike, the source gives them in different places.
Legend:
lytic phage particles = settings: culture medium treated with chlorite at 15 mM; cited from earlier work
[1] = test system: Caulobacter strain KR260 (empty plasmid); settings: 0.5 mM chlorite, 1:1 co-culture with KR3557, 30° C
Description: (§1) Caulobacter crescentus NA 1000 harboring either pJS71 (KR260) or pJS14-xylX::cld (KR3557) were grown in PYE medium supplemented with 0.1% ferrous sulphate/chelate (Sigma # F0518) and 0.3% xylose to induce cld expression. pJS71 is a derivative of the broad-host-range plasmid pBBR1MCS (Kovach, M. E., et al. (1994) Biotechniques 16:800-2), which confers resistance to spectinomycin. […] Samples were withdrawn from each co-culture at the indicated times, diluted, and plated on PYE medium supplemented with 1 μg/ml chloramphenicol or with 100 μg/ml spectinomycin to enumerate survivors of each species.
(§2) Rather, both strains were co-cultured in PYE medium without selection, samples were taken, and the number of surviving colonies that were resistant to spectinomycin (KR260) or chloramphenicol (KR3557) were counted at the indicated times (FIG. 8).

[2] = test system: Caulobacter strain KR3557 (chlorite dismutase expression plasmid); settings: 0.5 mM chlorite, 1:1 co-culture with KR260, 30° C
Description: as §1, §2

[3] = test system: bacteriophage that attacks Pseudomonas chloritidismutans; settings: LB, 60 μM chlorite plus phage together, 37° C
Description: (§7) For growth experiments, P. chloritidismutans was grown in LB medium to an OD600 of 0.233 (selected from a dilution series made from an overnight culture). […] Each condition was replicated in six wells of a microtiter plate incubated at 37° C. Optical density (600 nm) was recorded during growth in a plate reader.

[4] = test system: Pseudomonas chloritidismutans; settings: LB, 60 μM chlorite alone, 37° C
Description: as §7

[5] = test system: Shewanella oneidensis strain MR-1 engineered strain (ICC38); settings: aerobic
[6] = test system: Azospira suillum strain PS Δcld mutant; settings: grown aerobically, 40 μM chlorite
Description: (§3) Azospira suillum PS (ATCC BAA-33/DSMZ 13638) was revived from a lab freezer stock and used as the wild-type strain for all genetic manipulations. Various E. coli strains were also used for cloning and conjugation purposes. Prior to all growth curves and genetic manipulations, all strains were streaked out from master freezer stocks to get single colonies.
(§4) E. coli strains were grown in LB media. Kanamycin (Kan, […]) was used for selection and diaminopimelic acid (DAP, 0.3 mM) was used as a supplement to cultivate the auxotrophic strain WM3064. For routine culturing as well as growth assays, wild-type and mutant strains of PS were grown in ALP media. One liter of ALP media is composed of 0.49 g monobasic sodium phosphate dihydrate, 0.97 g dibasic anhydrous sodium phosphate, 0.1 g potassium chloride, 0.25 g ammonium chloride, 0.82 g sodium acetate, 2.0 g yeast extract, 7.6 g of a 60% w/w sodium lactate solution, 1.10 g sodium pyruvate and 10 mL of both vitamin mix and mineral mix. To make solid ALP media for plates, 15 g/L agar was added. Kanamycin was used for selection of PS mutants at a concentration of […]. For anaerobic growth of PS, ALP media was supplemented with either 5 mM sodium nitrate, 2.5 mM sodium perchlorate, or 5 mM of both sodium nitrate and sodium perchlorate.

[7] = test system: Azospira suillum strain PS (wild type); settings: grown aerobically, 40 μM chlorite
Description: as §3, §4

[8] = test system: wild-type Caulobacter crescentus NA1000 harboring pJS14; settings: PYE with 0.3% xylose
Description: (§5) Wild-type Caulobacter crescentus NA1000 (Marks, M. E., et al. (2010) J. Bacteriol. 192:3678-88) was grown in peptone-yeast extract medium (PYE; see Ely, B. (1991) Methods Enzymol. 204:372-84) supplemented with 0.1% (v/v) ferrous sulphate/chelate solution (Sigma # F0518). The plasmid pJS14 is a derivative of the broad-host-range cloning vector pBBR1MCS (Kovach, M. E., et al. (1994) Biotechniques 16:800-2), which confers resistance to chloramphenicol. To express Cld from pJS14, the cld open reading frame from P. chloritidismutans was placed behind a ˜430 base pair NcoI-EcoRI fragment of the xylX promoter from C. crescentus (Meisenzahl, A. C., et al. (1997) J. Bacteriol. 179:592-600). pJS14-xylX::cld or the empty vector pJS14 was transformed into NA1000 with selection using 1 μg/ml chloramphenicol.
(§6) The two strains were grown separately in PYE/chloramphenicol/ferrous sulphate supplemented with 0.3% xylose to induce cld expression. […] Each strain/condition was assayed in six individual wells.

[9] = test system: Caulobacter crescentus NA1000 harboring pJS14-xylX::cld; settings: PYE with 0.3% xylose
Description: as §5, §6

[10] = test system: Shewanella oneidensis strain MR-1 wild type containing an empty expression vector (strain RAM13); settings: aerobic

chlorite
reduction in lytic phage particles (lytic phage particles): greater than 99%
growth of KR260 in co-culture [1]: completely blocked
growth of KR3557 in co-culture [2]: slightly reduced rate
growth of P. chloritidismutans with live phage [3]: wild-type growth rate
growth of P. chloritidismutans [4]: did not hinder the growth
growth of the recombinantly engineered strain (ICC38) ([5]; 250 μM chlorite): unimpaired
growth of the recombinantly engineered strain (ICC38) ([5]; 1000 μM chlorite): minimal growth impairment
growth of the Δcld mutant [6]: no growth is observed
growth of the wild type strain [7]: unimpaired
growth of wild-type Caulobacter (pJS14) ([8]; 1 mM chlorite): completely blocked
growth of wild-type Caulobacter (pJS14) ([8]; 4 mM chlorite): completely blocked
growth of Caulobacter expressing chlorite dismutase versus control medium lacking chlorite ([9]; 1 mM chlorite): growing at the same rate
growth of Caulobacter expressing chlorite dismutase versus control medium lacking chlorite ([9]; 4 mM chlorite): growing at the same rate
growth of the wild type strain (RAM13) ([10]; 250 μM chlorite): significant reduction in the growth rate
growth of the wild type strain (RAM13) ([10]; 1000 μM chlorite): completely inhibited

From patent US10724010B2 (The Regents of the University of California, priority 2013, dated 2020)
